{"source": "patent US7803408B2", "about": "“Method of treating endothelial injury” (East Carolina University, priority 1996, dated 2010)", "key": {"[1]": {"tested_on": "Human umbilical vein endothelial cells (HUVECs)", "assay_type": "cell-based", "description": "(§1) Cell Culture. Human umbilical vein endothelial cells (HUVECs) were obtained from Caesarian section derived cords. HUVECs were cultured by standard methodology in 25 cm^2 T-flasks (Corning Inc., Corning, N.Y.) coated with 0.5% porcine skin gelatin (Sigma Chemical Co., St. Louis, Mo.). Medium 199 (Life Technologies, Gaithersburg, Md.), supplemented with 20% defined fetal bovine serum (FBS) (Hyclone, Logan, Utah), 16 U/ml heparin (Sigma), 50 μg/ml bovine hypothalamus derived endothelial mitogen (Biomedical Technologies, Stoughton, Mass.), 100 U/ml penicillin and 100 μg/ml streptomycin was used for the growth of HUVECs. Endothelial cells were characterized by homogenous and typical cobblestone morphology, von Willebrand factor antigen positively, and the presence of Weibel-Palade bodies, as are known in the art.\n(§2) Protection/Inhibition Assay. The number of metabolically active cells after exposure of endothelial cell cultures to test agents was assessed using a calorimetric method. This assay utilizes solutions of a tetrazolium compound [3-(4,5-dimethylthiazol-2-yl)-5-(3-carboxymethoxyphenyl)-2-(4 Sulfophenyl)-2H-tetrazolium] (MTS) and an electron coupling reagent, phenazine methosulfate (PMS; available from Promega Corp., Madison, Wis.). See Denizot and Lang, J. Immunol. Methods 89:271 (1986); Promega Corporation Technical Bulletins 112, 152 and 169). […] The amount of formazan is measured at 490 nm absorbance and is directly proportional to the numbers of living cells in culture.\n(§3) Endothelial cells grown in the complete (supplemented) M199 medium were harvested in the log phase. […] The number and viability of the cells was determined using a hemocytometer and the trypan blue staining, respectively. […] The absorbance of each well at 490 nm was recorded using an ELISA plate reader. The LD50 and the effect of the various treatments on cell viability and chemosensitivity were determined by plotting the corrected absorbance at 490 nm versus the concentration of the additive (EPO, chemotherapeutic agent, or combinations thereof). […]"}, "[2]": {"tested_on": "bovine capillary endothelial cells", "conditions": "cited from earlier work"}, "[3]": {"tested_on": "human umbilical vein endothelial cells", "conditions": "cited from earlier work"}, "[4]": {"tested_on": "Human umbilical vein endothelial cells (HUVECs)", "assay_type": "cell-based", "description": "as §1, with “Endothelial cells were characterized by homogenous and typical cobblestone morphology, von Willebrand factor antigen positively, and the presence of Weibel-Palade bodies, as are known in the art.” left out\nProtection/Inhibition Assay. The number of metabolically active cells after exposure of endothelial cell cultures to test agents was assessed using a calorimetric method. […] The amount of formazan is measured at 490 nm absorbance and is directly proportional to the numbers of living cells in culture.\nEndothelial cells grown in the complete (supplemented) M199 medium were harvested in the log phase. […] The number and viability of the cells was determined using a hemocytometer and the trypan blue staining, respectively. […] The absorbance of each well at 490 nm was recorded using an ELISA plate reader. […]\nEndothelial cell cultures were prepared as described in Example 1. […] Endothelial cell viability was assessed using the MTS/PMS calorimetric assay described in Example 1.", "remark": "listed apart in the source"}, "[5]": {"conditions": "doses of up to 1,500 Units/kg for three to four weeks; cited from earlier work"}, "[6]": {"tested_on": "Human umbilical vein endothelial cells (HUVECs)", "assay": "Protection/inhibition assay, EPO added two hours after cisplatin (MTS/PMS)", "assay_type": "cell-based", "description": "as §1\nas §2, with “Wis.).” for “Wis.). See Denizot and Lang, J. Immunol. Methods 89:271 (1986); Promega Corporation Technical Bulletins 112, 152 and 169).”\nas §3\nEndothelial cell cultures were prepared as described in Example 1. […] Endothelial cell viability was assessed using the MTS/PMS colorimetric assay described in Example 1."}}, "note": "Read-outs that look alike come from different tables or passages of the source.", "data": [{"substance": "erythropoietin [EPO]", "values": [{"measurement": "effect on endothelial cell cultures vs cisplatin alone", "setting": "[1]; 0.15 to 1.25 U/ml EPO simultaneously with 1 μg/ml cisplatin", "value": "protected from the damaging effects of cisplatin"}, {"measurement": "number of viable cells greater than in control cultures treated with cisplatin only", "setting": "[1]; 0.3 U/ml EPO simultaneously with 1 μg/ml cisplatin", "value": "approximately 30%"}, {"measurement": "endothelial cell growth vs cisplatin alone", "setting": "[1]; 5 to 20 U/ml EPO simultaneously with 1 μg/ml cisplatin", "value": "inhibited"}, {"measurement": "mitogenic and chemoattractant (migratory) effect", "setting": "[2]", "value": "exerts a mitogenic and chemoattractant (migratory) effect"}, {"measurement": "mitogenic and chemoattractant (migratory) effect", "setting": "[3]", "value": "exerts a mitogenic and chemoattractant (migratory) effect"}, {"measurement": "reduction of cell growth compared to controls", "setting": "[4]; 2.5 U/ml EPO two hours prior to cisplatin", "value": 48, "unit": "%"}, {"measurement": "reduction of cell growth compared to controls", "setting": "[4]; 5 U/ml EPO two hours prior to cisplatin", "value": 58, "unit": "%"}, {"measurement": "toxic effects due to EPO itself", "setting": "[5]", "value": "without toxic effects"}, {"measurement": "effect on endothelial cell cultures vs cisplatin alone", "setting": "[6]; 0.15 to 5 U/ml EPO two hours following 1 μg/ml cisplatin", "value": "protected from the damaging effects of cisplatin"}, {"measurement": "number of viable cells greater than that of controls", "setting": "[6]; 1.25 U/ml EPO two hours after 1 μg/ml cisplatin", "value": 34, "unit": "%"}, {"measurement": "cell viability vs controls (cisplatin only)", "setting": "[6]; 10 to 20 U/ml EPO two hours after 1 μg/ml cisplatin", "value": "reduced over that seen in controls"}]}]}
